pIC50: −log10 of the molar value.

The subject of this assay is tubulin (αβ-tubulin; colchicine site in β-subunit). The experiment in a line: [3H]colchicine competition on purified tubulin. In kind it is biochemical.

`COc1ccc(/C=C\c2cc(OC)c(OC)c(OC)c2)cc1O` [combretastatin A-4] showed a pIC50 of 5.92.

`O=c1cc(-c2ccccc2)[nH]c2ccc3c(ccn3CC3CC3)c12` [MG-2477, 3-cyclopropylmethyl-7-phenyl-3H-pyrrolo[3,2-f]quinolin-9(6H)-one] showed a pIC50 of 6.05.

By pIC50 is commonly meant the IC50 on a negative log10 scale, so that one unit is a factor of ten. A high value points to a small IC50.

The values above are taken from article PMC3234688 (2011).
